Publication PMC9238401, “Peptide Conjugates Derived from flg15, Pep13, and PIP1 That Are Active against Plant-Pathogenic Bacteria and Trigger Plant Defense Responses” (Applied and Environmental Microbiology, 2022)
No end group written: not given here.

Legend:
horse erythrocytes = details: TRIS buffer pH 7.2, 1 h, 37°C, absorbance 540 nm, relative to melittin 100 μM, ± confidence interval (α = 0.05)
Procedure: The toxicity of peptide conjugates to eukaryotic cells was determined as the ability to lyse erythrocytes (Table SB).
The hemolytic activity of the compounds was evaluated by determining hemoglobin release from erythrocyte suspensions of horse blood (5% vol/vol) (Oxoid) as previously described ([45]). Blood was centrifuged at 6000g for 5 min, washed three times with TRIS buffer (10 mM TRIS, 150 mM NaCl, pH 7.2) and diluted 10 times. Compounds were solubilized in TRIS buffer at 750, 500, 300, and 100 μM and mixed with horse erythrocytes (1:1 vol/vol). The mixture was incubated with continuous shaking for 1 h at 37°C. Then, the tubes were centrifuged at 3500g for 10 min, 80-μL aliquots of the supernatant were transferred to 100-well microplates (Bioscreen) and diluted with 80 μL water, and the absorbance measured at 540 nm (Bioscreen). […] The percentage of hemolysis (H) was calculated using the equation H = 100 × ([Op − Ob]/[Om − Ob]), where Op is the density for a given compound concentration, Ob is that for the buffer, and Om is that for the melittin positive control.

tobacco leaves = assay: Effect of peptide infiltration on tobacco leaves (phytotoxicity); type: in vivo; details: 100 μL infiltrated into mesophyll, lesion diameter 48 h after infiltration, at least three leaves; ± confidence interval (α = 0.05)
Procedure: Peptide conjugates were also assayed for their toxicity in tobacco leaves (Fig. 3, Table SC). After 48 h of infiltration, melittin caused a necrotic area of 0.70 and 2.17 cm in diameter at 50 and 250 μM, respectively. The monomers were not phytotoxic at those concentrations; all of them led to lesions of ≤1.2 cm at 250 μM. All peptide conjugates were also less phytotoxic than melittin, causing necrotic lesions between 0.26 and 1.67 cm in diameter at 250 μM. In particular, 15 of the 30 conjugates led to a necrotic area of <1 cm at this concentration. In general, sequences incorporating BP13 were among the most phytotoxic.
Peptide conjugates were evaluated for their effect on infiltration on tobacco leaves as described previously ([41]). Peptide solutions of 50, 150, and 250 μM were infiltrated (100 μL) into the mesophylls of fully expanded tobacco leaves. Infiltrations were carried out in a single leaf, and for each peptide and dose, at least three leaves randomly distributed in different plants were inoculated. Control infiltrations with water (negative control) or melittin (positive control) at the same molar concentration were performed. The appearance of symptoms on the leaves was followed for 48 h after infiltration and measured as lesion diameter.

[1] = test system: Xanthomonas axonopodis pv. vesicatoria 2133-2; details: TSB, 25°C, 48 h, OD 600 nm (Bioscreen C), three replicates, experiment repeated twice; MIC given as range
Excerpt: The corresponding monomers (flg15, BP13, Pep13, PIP1, BP16, BP100, BP143, BP387, BP475, and KSL-W) were included for comparison.
(§1) The following plant-pathogenic bacterial strains were used: Erwinia amylovora PMV6076 (Institut National de la Recherche Agronomique, Angers, France), Pseudomonas syringae pv. syringae EPS94 (Institut de Tecnologia Agroalimentària, University of Girona, Spain), Xanthomonas axonopodis pv. vesicatoria 2133-2, X. axonopodis pv. vesicatoria Xav206 (Xav) (D. F. Ritchie, Department of Plant Pathology, North Carolina State University), Pseudomonas syringae pv. actinidiae Psa3700.1.1, Xanthomonas fragariae Xf349-9A (Instituto Valenciano de Investigaciones Agrarias, Valencia, Spain), and Xanthomonas arboricola pv. pruni CFBP5563 (Collection Française de Bactéries Associées aux Plantes, Angers, France). All bacteria except for X. fragariae were stored in Luria Bertani (LB) broth supplemented with glycerol (20%) and maintained at −80°C. For X. fragariae, medium B ([80]) was used instead of LB. E. amylovora, X. arboricola pv. pruni, P. syringae pv. syringae, and P. syringae pv. actinidiae were scraped from the agar medium after growing for 24 h at 25°C, and X. axonopodis pv. vesicatoria and X. fragariae, after growing for 48 h at 25°C. The cell material was suspended in sterile water to obtain a suspension of 10^8 CFU mL^−1.
(§2) Lyophilized peptides were solubilized in sterile Milli-Q water to a final concentration of 1 mM and filter-sterilized through a 0.22-μm pore filter. […] Then, 20 μL of each dilution were mixed in a microtiter plate well with 20 μL of the corresponding suspension of the bacterial indicator, 160 μL of Trypticase soy broth (TSB) (bioMérieux, France) to a total volume of 200 μL. Three replicates for each combination of strain, compound, and concentration were used. Microbial growth was determined by optical density measurement at 600 nm (Bioscreen C; Labsystem, Helsinki, Finland). Microplates were incubated at 25°C with 20 s of shaking before hourly absorbance measurement for 48 h. The experiment was repeated twice. The MIC was taken as the lowest compound concentration with no growth at the end of the experiment.

[2] = test system: Pseudomonas syringae pv. actinidiae Psa3700.1.1; assay: In vitro growth inhibition (MIC); type: cell-based; details: TSB, 25°C, 48 h, OD 600 nm (Bioscreen C), three replicates, experiment repeated twice; MIC given as range
Procedure: (§3) Peptide conjugates were tested for in vitro growth inhibition of the plant-pathogenic bacteria E. amylovora PMV6076, Xanthomonas arboricola pv. pruni CFBP5563, X. fragariae Xf349-9A, X. axonopodis pv. vesicatoria 2133-2, P. syringae pv. actinidiae Psa3700.1.1, and P. syringae pv. syringae EPS94 (Fig. 1, Table SA). The corresponding monomers (flg15, BP13, Pep13, PIP1, BP16, BP100, BP143, BP387, BP475, and KSL-W) were included for comparison.
as §1, §2

[3] = test system: Xanthomonas fragariae Xf349-9A; assay: In vitro growth inhibition (MIC); type: cell-based; details: TSB, 25°C, 48 h, OD 600 nm (Bioscreen C), three replicates, experiment repeated twice; MIC given as range
Procedure: as §3, §1, §2

[4] = test system: Pseudomonas syringae pv. syringae EPS94; assay: In vitro growth inhibition (MIC); type: cell-based; details: TSB, 25°C, 48 h, OD 600 nm (Bioscreen C), three replicates, experiment repeated twice; MIC given as range
Procedure: as §3, §1, §2

[5] = test system: Erwinia amylovora PMV6076; assay: In vitro growth inhibition (MIC); type: cell-based; details: TSB, 25°C, 48 h, OD 600 nm (Bioscreen C), three replicates, experiment repeated twice; MIC = lowest concentration with no growth, given as range
Procedure: as §3, §1, §2

[6] = test system: Xanthomonas arboricola pv. pruni CFBP5563; assay: In vitro growth inhibition (MIC); type: cell-based; details: TSB, 25°C, 48 h, OD 600 nm (Bioscreen C), three replicates, experiment repeated twice; MIC given as range
Procedure: as §3, §1, §2

Molecule | Percent hemolysis at 50 μM (horse erythrocytes) | Percent hemolysis at 150 μM (horse erythrocytes) | Percent hemolysis at 250 μM (horse erythrocytes) | Percent hemolysis at 375 μM (horse erythrocytes) | Size of the lesions in infiltrated tobacco leaves at 50 μM (tobacco leaves) | Size of the lesions in infiltrated tobacco leaves at 150 μM (tobacco leaves) | Size of the lesions in infiltrated tobacco leaves at 250 μM (tobacco leaves) | MIC, Xav [1] | MIC, Psa [2] | MIC, Xf [3] | MIC, Pss [4] | MIC, Ea [5] | MIC, Xap [6]
FKLFKKILKVL-KKLFKKILKKL-NH2 [BP13-BP16, peptide conjugate, BP13 at N-terminus, BP16 at C-terminus] | 86 ± 13.2% | 86 ± 1.6% | 87 ± 1.2% | 93 ± 2.3% | 0.52 ± 0.08 cm | 1.08 ± 0.21 cm | 1.40 ± 0.71 cm | 12.5 to 25 µM | > 50 µM | 6.2 to 12.5 µM | > 50 µM | > 50 µM | 6.2 to 12.5 µM
melittin [reference compound] |  |  |  |  | 0.70 cm |  | 2.17 cm |  |  |  |  |  | 
KKVVFWVKFK-NH2 [KSL-W, reference compound] | 4 ± 1% | 5 ± 0.2% | 6 ± 1% | 20 ± 2% | 0 ± 0 cm | 0.37 ± 0.97 cm | 0.62 ± 0.45 cm |  |  |  |  |  | 
KKLFKKILKKL-FKLFKKILKVL-NH2 [BP16-BP13, peptide conjugate, BP16 at N-terminus, BP13 at C-terminus] | 100 ± 4.0% | 100 ± 2.3% | 100 ± 8.5% | 100 ± 2.1% | 0.68 ± 0.16 cm | 1.15 ± 0.28 cm | 1.52 ± 0.32 cm | 1.6 to 3.1 µM | 25 to 50 µM | 12.5 to 25 µM | 12.5 to 25 µM | > 50 µM | 6.2 to 12.5 µM
FKLFKKILKVL-KKLFKKILKYL-NH2 [BP13-BP100, peptide conjugate, BP13 at N-terminus, BP100 at C-terminus] | 100 ± 8.3% | 100 ± 5.9% | 99 ± 7.1% | 100 ± 4.8% | 0.60 ± 0.30 cm | 1.20 ± 0.17 cm | 1.30 ± 0.17 cm | 12.5 to 25 µM | 25 to 50 µM | 6.2 to 12.5 µM | > 50 µM | > 50 µM | 12.5 to 25 µM
CC[C@H](C)[C@H](NC(=O)[C@H](CCCCN)NC(=O)[C@H](CCCCN)NC(=O)[C@H](Cc1ccccc1)NC(=O)[C@H](CC(C)C)NC(=O)[C@H](CCCCN)NC(=O)[C@@H](N)CCCCN)C(=O)N[C@@H](CC(C)C)C(=O)N[C@@H](CCCCN)C(=O)N[C@@H](Cc1ccc(O)cc1)C(=O)N[C@@H](CC(C)C)C(N)=O [BP100, reference compound] | 4 ± 0.5% | 7 ± 2% | 6 ± 0.3% | 11 ± 0.9% | 0.40 ± 0.03 cm |  | 1.20 ± 0.16 cm |  |  |  |  |  | 
CC[C@H](C)[C@H](NC(=O)[C@H](CCCCN)NC(=O)[C@H](CCCCN)NC(=O)[C@H](Cc1ccccc1)NC(=O)[C@H](CC(C)C)NC(=O)[C@H](CCCCN)NC(=O)[C@@H](N)CCCCN)C(=O)N[C@@H](CC(C)C)C(=O)N[C@@H](CCCCN)C(=O)N[C@@H](CCCCN)C(=O)N[C@@H](CC(C)C)C(N)=O [BP16, reference compound] | 2 ± 1% | 1 ± 0.6% | 1 ± 0.4% | 3 ± 3% | 0.08 ± 0.11 cm | 0.16 ± 0.16 cm | 0.26 ± 0.08 cm |  |  |  |  |  | 
CC[C@H](C)[C@H](NC(=O)[C@H](CCCCN)NC(=O)[C@H](CCCCN)NC(=O)[C@@H](Cc1ccccc1)NC(=O)[C@H](CC(C)C)NC(=O)[C@H](CCCCN)NC(=O)[C@@H](N)CCCCN)C(=O)N[C@@H](CC(C)C)C(=O)N[C@@H](CCCCN)C(=O)N[C@@H](Cc1ccc(O)cc1)C(=O)N[C@@H](CC(C)C)C(N)=O [BP143, reference compound] | 3 ± 0.6% | 4 ± 0.6% | 6 ± 0.3% | 7 ± 0.3% | 0.10 ± 0.12 cm | 0.37 ± 0.15 cm | 0.65 ± 0.11 cm |  |  |  |  |  | 
